Like-named read-outs stand apart in the source and are kept apart here.
Tests used:
Format in all cases: cell-based
hGIPR = target: T1, hGIPR (Homo sapiens, UniProt P48546); test: Functional cAMP formation (HTRF) in HEK-293 clonal cells expressing hGIPR, 0.1% bovine casein, without or with 1.0% human serum albumin; settings: for EC50: geometric mean, read-out: hGIPR EC50, nM (SEM, n); for Emax: read-out: hGIPR Emax, % ± SEM
T1 construct: expressed in transfected cells
T1 sequence (P48546 22-466): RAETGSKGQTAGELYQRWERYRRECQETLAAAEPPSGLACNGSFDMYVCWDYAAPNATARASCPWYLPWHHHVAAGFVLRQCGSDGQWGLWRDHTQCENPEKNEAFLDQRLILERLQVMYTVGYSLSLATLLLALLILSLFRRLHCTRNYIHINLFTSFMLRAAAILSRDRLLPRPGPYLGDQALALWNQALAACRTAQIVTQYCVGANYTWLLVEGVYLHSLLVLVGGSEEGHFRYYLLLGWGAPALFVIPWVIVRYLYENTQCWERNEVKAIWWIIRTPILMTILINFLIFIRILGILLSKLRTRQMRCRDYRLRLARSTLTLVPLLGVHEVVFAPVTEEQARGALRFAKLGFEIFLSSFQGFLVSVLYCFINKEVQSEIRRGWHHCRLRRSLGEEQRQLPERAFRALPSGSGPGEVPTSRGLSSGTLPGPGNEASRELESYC
How it was run: (§1)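 Cells were stimulated with peptide for 30 min at 37° C, then lysed in buffer carrying cAMP-d2 and anti-cAMP Eu3+-cryptate for a competitive HTRF read after at least 60 min at room temperature. The 665/620 nm ratio was converted to nM cAMP against a standard curve.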

hGCGR = target: T2, hGCGR (Homo sapiens, UniProt P47871); test: Functional cAMP formation (HTRF) in HEK-293 clonal cells expressing hGCGR, 0.1% bovine casein, without or with 1.0% human serum albumin; settings: geometric mean, read-out: hGCGR EC50, nM (SEM, n)
T2 construct: expressed in transfected cells
How it was run: as §1

hGLP-1R = hGLP-1R (Homo sapiens, UniProt P43220); test: Functional cAMP formation (HTRF) in HEK-293 clonal cells expressing hGLP-1R, 0.1% bovine casein, without or with 1.0% human serum albumin; parameters: expressed in transfected cells; settings: for EC50: geometric mean, read-out: hGLP-1R EC50, nM (SEM, n); for Emax: read-out: hGLP-1R Emax, % ± SEM
How it was run: as §1

[1] = 0.1% bovine casein and 1.0% human serum albumin, 37° C.
[2] = HEK293, 0.1% bovine casein and 1.0% human serum albumin, 37° C., percent of maximal response to GIP(1-42)NH2
[3] = HEK293, percent of maximal response to GIP(1-42)NH2, 37° C., 0.1% bovine casein, arithmetic mean
[4] = cAMP, incubated at 37° C., 0.1% bovine casein (no human serum albumin)
[5] = HEK293, 0.1% bovine casein and 1.0% human serum albumin, 37° C., percent of maximal response to GLP-1(7-36)NH2
[6] = HEK293, percent of maximal response to GLP-1(7-36)NH2, 37° C., 0.1% bovine casein, arithmetic mean

Sequence of hGLP-1R (P43220 24-463): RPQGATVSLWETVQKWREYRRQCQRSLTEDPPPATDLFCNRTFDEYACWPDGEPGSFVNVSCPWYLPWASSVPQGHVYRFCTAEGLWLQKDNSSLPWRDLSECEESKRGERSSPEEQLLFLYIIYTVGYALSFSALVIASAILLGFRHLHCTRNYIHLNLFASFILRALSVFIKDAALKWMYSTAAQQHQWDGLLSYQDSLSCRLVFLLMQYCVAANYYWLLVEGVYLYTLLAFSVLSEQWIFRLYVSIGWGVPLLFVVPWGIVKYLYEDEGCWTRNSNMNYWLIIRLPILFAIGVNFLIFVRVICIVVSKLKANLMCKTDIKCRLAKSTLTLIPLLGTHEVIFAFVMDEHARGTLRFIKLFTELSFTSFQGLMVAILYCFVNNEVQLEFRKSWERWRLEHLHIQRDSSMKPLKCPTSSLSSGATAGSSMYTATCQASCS
T2 sequence (P47871 26-477): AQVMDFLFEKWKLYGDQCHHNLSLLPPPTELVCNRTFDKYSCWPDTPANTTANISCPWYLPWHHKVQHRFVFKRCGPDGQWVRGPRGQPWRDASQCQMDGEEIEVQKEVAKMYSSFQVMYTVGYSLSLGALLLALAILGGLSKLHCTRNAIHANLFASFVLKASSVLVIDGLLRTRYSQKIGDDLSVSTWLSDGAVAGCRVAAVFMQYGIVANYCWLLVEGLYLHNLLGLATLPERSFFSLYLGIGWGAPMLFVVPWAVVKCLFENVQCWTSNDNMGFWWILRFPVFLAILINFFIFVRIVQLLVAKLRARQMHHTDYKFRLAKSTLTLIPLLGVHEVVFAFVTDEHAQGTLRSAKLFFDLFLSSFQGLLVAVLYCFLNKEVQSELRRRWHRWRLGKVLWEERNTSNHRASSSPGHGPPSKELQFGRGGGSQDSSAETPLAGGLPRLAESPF

Row | SMILES | EC50 (hGIPR; [1]) | Emax (hGIPR; [2]) | Emax (hGIPR; [3]) | EC50 (hGIPR; [4]) | EC50 (hGCGR; [1]) | EC50 (hGCGR; [4]) | EC50 (hGLP-1R; [1]) | Emax (hGLP-1R; [5]) | Emax (hGLP-1R; [6]) | EC50 (hGLP-1R; [4])
1 | CC[C@H](C)[C@H](NC(=O)[C@H](CC(C)C)NC(=O)[C@](C)(Cc1ccc(O)cc1)NC(=O)[C@@H](CCC(=O)O)NC(=O)[C@@H](NC(=O)[C@H](Cc1ccccc1)NC(=O)[C@H](CCCCNC(=O)COCCOCCNC(=O)CC[C@H](NC(=O)CCCc1ccc(C(C)(C)C)cc1)C(=O)O)NC(=O)C(C)(C)NC(=O)[C@H](CCC(N)=O)NC(=O)[C@H](C)NC(=O)[C@H](CCCCNC(=O)COCCOCCNC(=O)CC[C@H](NC(=O)CCCc1ccc(C(C)(C)C)cc1)C(=O)O)NC(=O)[C@H](CCCN)NC(=O)[C@H](CC(=O)O)NC(=O)[C@H](CC(C)C)NC(=O)[C@](C)(CC(C)C)NC(=O)[C@@H](NC(=O)[C@H](CO)NC(=O)[C@H](Cc1ccncc1)NC(=O)[C@H](CC(=O)O)NC(=O)[C@H](CO)NC(=O)[C@@H](NC(=O)[C@](C)(Cc1ccccc1F)NC(=O)[C@@H](NC(=O)CNC(=O)[C@H](CCC(=O)O)NC(=O)C(C)(C)NC(=O)[C@@H](N)Cc1ccc(O)cc1)[C@@H](C)O)[C@@H](C)O)[C@@H](C)CC)[C@@H](C)CC)C(=O)N[C@@H](CCC(=O)O)C(=O)NCC(=O)NCC(=O)N1CCC[C@H]1C(=O)N[C@@H](CO)C(=O)N[C@@H](CO)C(=O)NCC(=O)N[C@@H](C)C(=O)N1CCC[C@H]1C(=O)N1CCC[C@H]1C(=O)N1CCC[C@H]1C(=O)N[C@@H](CO)C(N)=O [Example 207] | 0.591 nM | 97.9% | 96.2% | 0.019 nM | > 9950 nM | > 9950 nM | 2.98 nM | 112% | 95.1% | 0.209 nM
2 | CC[C@H](C)[C@H](NC(=O)[C@H](CC(C)C)NC(=O)[C@](C)(Cc1ccc(O)cc1)NC(=O)[C@@H](CCC(=O)O)NC(=O)[C@@H](NC(=O)[C@H](Cc1ccccc1)NC(=O)[C@H](CCC(=O)O)NC(=O)C(C)(C)NC(=O)[C@H](CCC(N)=O)NC(=O)[C@H](C)NC(=O)[C@H](CCCCNC(=O)COCCOCCNC(=O)CC[C@H](NC(=O)CCCc1ccc(C(C)(C)C)cc1)C(=O)O)NC(=O)[C@H](CCCN)NC(=O)[C@H](CC(=O)O)NC(=O)[C@H](CC(C)C)NC(=O)[C@](C)(CC(C)C)NC(=O)[C@@H](NC(=O)[C@H](CO)NC(=O)[C@H](Cc1ccncc1)NC(=O)[C@H](CC(=O)O)NC(=O)[C@H](CO)NC(=O)[C@@H](NC(=O)[C@](C)(Cc1ccccc1F)NC(=O)[C@@H](NC(=O)CNC(=O)[C@H](CCC(=O)O)NC(=O)C(C)(C)NC(=O)[C@@H](N)Cc1ccc(O)cc1)[C@@H](C)O)[C@@H](C)O)[C@@H](C)CC)[C@@H](C)CC)C(=O)N[C@@H](CCCCNC(=O)COCCOCCNC(=O)CC[C@H](NC(=O)CCCc1ccc(C(C)(C)C)cc1)C(=O)O)C(=O)NCC(=O)NCC(=O)N1CCC[C@H]1C(=O)N[C@@H](CO)C(=O)N[C@@H](CO)C(=O)NCC(=O)N[C@@H](C)C(=O)N1CCC[C@H]1C(=O)N1CCC[C@H]1C(=O)N1CCC[C@H]1C(=O)N[C@@H](CO)C(N)=O [Example 208] | 0.126 nM | 64.1% | 94.9% | 0.018 nM | > 9950 nM | > 9950 nM | 1.58 nM | – | – | –
3 | CC[C@H](C)[C@H](NC(=O)[C@H](CC(C)C)NC(=O)[C@](C)(Cc1ccc(O)cc1)NC(=O)[C@@H](CCC(=O)O)NC(=O)[C@@H](NC(=O)[C@H](Cc1ccccc1)NC(=O)[C@H](CCC(=O)O)NC(=O)C(C)(C)NC(=O)[C@H](CCC(N)=O)NC(=O)[C@H](C)NC(=O)[C@H](CCCCNC(=O)COCCOCCNC(=O)CC[C@H](NC(=O)CCCc1ccc(C(C)(C)C)cc1)C(=O)O)NC(=O)[C@H](CCCN)NC(=O)[C@H](CC(=O)O)NC(=O)[C@H](CC(C)C)NC(=O)[C@](C)(CC(C)C)NC(=O)[C@@H](NC(=O)[C@H](CO)NC(=O)[C@H](Cc1ccncc1)NC(=O)[C@H](CC(=O)O)NC(=O)[C@H](CO)NC(=O)[C@@H](NC(=O)[C@](C)(Cc1ccccc1F)NC(=O)[C@@H](NC(=O)CNC(=O)[C@H](CCC(=O)O)NC(=O)C(C)(C)NC(=O)[C@@H](N)Cc1ccc(O)cc1)[C@@H](C)O)[C@@H](C)O)[C@@H](C)CC)[C@@H](C)CC)C(=O)N[C@@H](CCC(=O)O)C(=O)NCC(=O)NCC(=O)N1CCC[C@H]1C(=O)N[C@@H](CO)C(=O)N[C@@H](CO)C(=O)NCC(=O)N[C@@H](C)C(=O)N1CCC[C@H]1C(=O)N1CCC[C@H]1C(=O)N1CCC[C@H]1C(=O)N[C@@H](CO)C(=O)N[C@@H](CCCCNC(=O)COCCOCCNC(=O)CC[C@H](NC(=O)CCCc1ccc(C(C)(C)C)cc1)C(=O)O)C(N)=O [Example 209] | 0.173 nM | 90.8% | – | 0.0133 nM | > 9950 nM | > 9950 nM | 1.16 nM | 109% | 100% | 0.235 nM
4 | CC[C@H](C)[C@H](NC(=O)[C@H](CC(C)C)NC(=O)[C@](C)(Cc1ccc(O)cc1)NC(=O)[C@@H](CCC(=O)O)NC(=O)[C@@H](NC(=O)[C@H](Cc1ccccc1)NC(=O)[C@H](CCC(=O)O)NC(=O)C(C)(C)NC(=O)[C@H](CCC(N)=O)NC(=O)[C@H](C)NC(=O)[C@H](CCCCNC(=O)COCCOCCNC(=O)COCCOCCNC(=O)CCCCCCCCCCCCC(=O)O)NC(=O)[C@H](CCCN)NC(=O)[C@H](CC(=O)O)NC(=O)[C@H](CC(C)C)NC(=O)[C@](C)(CC(C)C)NC(=O)[C@@H](NC(=O)[C@H](CO)NC(=O)[C@H](Cc1ccncc1)NC(=O)[C@H](CC(=O)O)NC(=O)[C@H](CO)NC(=O)[C@@H](NC(=O)[C@](C)(Cc1ccccc1F)NC(=O)[C@@H](NC(=O)CNC(=O)[C@H](CCC(=O)O)NC(=O)C(C)(C)NC(=O)[C@@H](N)Cc1ccc(O)cc1)[C@@H](C)O)[C@@H](C)O)[C@@H](C)CC)[C@@H](C)CC)C(=O)N[C@@H](CCCCNC(=O)COCCOCCNC(=O)COCCOCCNC(=O)CCCCCCCCCCCCC(=O)O)C(=O)NCC(=O)NCC(=O)N1CCC[C@H]1C(=O)N[C@@H](CO)C(=O)N[C@@H](CO)C(=O)NCC(=O)N[C@@H](C)C(=O)N1CCC[C@H]1C(=O)N1CCC[C@H]1C(=O)N1CCC[C@H]1C(=O)N[C@@H](CO)C(N)=O [Example 210] | 0.44 nM | 68.1% | 92.1% | – | > 9950 nM | > 9950 nM | 8.86 nM | – | – | –
5 | CC[C@H](C)[C@H](NC(=O)[C@H](CC(C)C)NC(=O)[C@](C)(Cc1ccc(O)cc1)NC(=O)[C@@H](CCC(=O)O)NC(=O)[C@@H](NC(=O)[C@H](Cc1ccccc1)NC(=O)[C@H](CCC(=O)O)NC(=O)C(C)(C)NC(=O)[C@H](CCC(N)=O)NC(=O)[C@H](C)NC(=O)[C@H](CCCCNC(=O)COCCOCCNC(=O)COCCOCCNC(=O)CC[C@H](NC(=O)CCCCCCCCCCCCC(=O)O)C(=O)O)NC(=O)[C@H](CCCN)NC(=O)[C@H](CC(=O)O)NC(=O)[C@H](CC(C)C)NC(=O)[C@](C)(CC(C)C)NC(=O)[C@@H](NC(=O)C1(NC(=O)[C@H](Cc2ccncc2)NC(=O)[C@H](CC(=O)O)NC(=O)[C@H](CO)NC(=O)[C@@H](NC(=O)[C@](C)(Cc2ccccc2F)NC(=O)[C@@H](NC(=O)CNC(=O)[C@H](CCC(=O)O)NC(=O)C(C)(C)NC(=O)[C@@H](N)Cc2ccc(O)cc2)[C@@H](C)O)[C@@H](C)O)CCCC1)[C@@H](C)CC)[C@@H](C)CC)C(=O)N[C@@H](CCC(=O)O)C(=O)NCC(=O)NCC(=O)N[C@@H](CCCCNC(=O)COCCOCCNC(=O)COCCOCCNC(=O)CC[C@H](NC(=O)CCCCCCCCCCCCC(=O)O)C(=O)O)C(=O)N[C@@H](CO)C(=O)N[C@@H](CO)C(=O)NCC(=O)N[C@@H](C)C(=O)N1CCC[C@H]1C(=O)N1CCC[C@H]1C(=O)N1CCC[C@H]1C(=O)N[C@@H](CO)C(N)=O [Example 211] | 2.16 nM | 64.5% | 91.6% | – | > 9950 nM | > 9950 nM | – | 99% | 93.1% | –

Reference: patent publication US20230265151A1, “GIP/GLP1 CO-AGONIST COMPOUNDS” (priority 2020, published 2023)
